According to patent US4512986A, “Progrestationally active steroids” (priority 1983, dated 1985):
“Also recorded” adds a separate entry of the source. Read-outs that look alike come from different tables or passages of the source.

Experiments:
[1] = target: T1, Cytosol Progesterone Receptor of the Estrogen-primed Immature Rabbit Uterus (Oryctolagus cuniculus, UniProt P06186); test: Relative binding affinity for progesterone receptor (competition with 3H-progesterone); parameters: species or system rabbit (New Zealand White); settings: 16-18 hour incubation, progesterone = 100
T1 construct: cytosol progesterone receptor of the estrogen-primed immature rabbit uterus; tissue Dutchland Laboratories, Inc., Denver, Pa (animals); host or cells: uterus cytosol of estradiol-treated immature female New Zealand White rabbits
T1 sequence (P06186 1-930): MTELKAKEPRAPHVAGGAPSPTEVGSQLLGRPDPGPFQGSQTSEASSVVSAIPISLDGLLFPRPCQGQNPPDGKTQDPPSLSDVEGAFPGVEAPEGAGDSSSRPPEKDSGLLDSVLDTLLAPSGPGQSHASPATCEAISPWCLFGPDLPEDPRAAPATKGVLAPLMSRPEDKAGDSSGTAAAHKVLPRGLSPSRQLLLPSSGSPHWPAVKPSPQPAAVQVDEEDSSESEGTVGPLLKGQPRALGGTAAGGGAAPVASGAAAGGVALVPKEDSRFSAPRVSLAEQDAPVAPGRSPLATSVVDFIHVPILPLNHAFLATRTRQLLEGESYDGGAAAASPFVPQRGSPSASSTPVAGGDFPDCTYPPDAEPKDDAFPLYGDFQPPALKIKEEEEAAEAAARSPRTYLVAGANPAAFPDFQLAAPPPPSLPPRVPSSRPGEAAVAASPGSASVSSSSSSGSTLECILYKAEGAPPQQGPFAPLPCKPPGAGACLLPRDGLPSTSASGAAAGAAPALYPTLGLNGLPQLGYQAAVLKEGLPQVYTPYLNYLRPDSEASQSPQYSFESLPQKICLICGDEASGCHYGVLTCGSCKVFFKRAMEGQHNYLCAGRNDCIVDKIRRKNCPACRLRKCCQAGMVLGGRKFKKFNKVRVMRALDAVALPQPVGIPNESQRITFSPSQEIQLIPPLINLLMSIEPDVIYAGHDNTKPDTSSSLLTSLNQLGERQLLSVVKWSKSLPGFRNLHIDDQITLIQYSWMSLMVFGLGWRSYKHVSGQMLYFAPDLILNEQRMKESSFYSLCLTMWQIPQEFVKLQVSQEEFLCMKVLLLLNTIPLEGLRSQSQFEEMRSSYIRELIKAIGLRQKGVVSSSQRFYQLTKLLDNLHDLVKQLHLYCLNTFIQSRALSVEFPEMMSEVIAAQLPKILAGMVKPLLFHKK
Method: RBA values recorded at 0° C. after short incubation times (e.g., 2 hr) mainly reflect differences in the association rate constants of the competing ligands, whereas those measured after long incubation times (e.g., 16 to 24 hr) and/or higher temperatures predominantly are influenced by differences in the dissociation rate constants of the competing ligands. RBA's determined after short incubation times primarily reflect the association of the competitor compared to the natural hormone. Conversely, RBA's measured after long incubation times reflect the dissociation rate of the competitor compared to the natural hormone.
The assay components are combined, allowed to equilibrate, and unbound radioactivity removed by charcoal adsorption.
Animal species. Immature female New Zealand White rabbits weighing 0.8 to 1.0 kg (Dutchland Laboratories, Inc., Denver, Pa).
Pretreatment. Subcutaneous treatment with 15 μg 17β-estradiol/0.6 ml sesame oil each morning (0830 to 0930 hr) for three days. Animals sacrificed 24 hr after final injection.
Tissue. Uterus; each uterus weighed about 1.0 g and two or three uteri were pooled for each assay.
Buffer. (A) 0.01M TES, pH 7.4, 1 mM EDTA, 0.012M thioglycerol and 30% glycerol for cytosol preparation and ^3 H-steroid, unlabeled hormone and compound solutions. (B) 0.01M TES, pH 7.4, 1 mM EDTA and 0.012M thioglycerol for charcoal solution.
Homogenization. Five or six 5-second bursts with 30 second cooling periods between bursts using Brinkman Polytron Pt. 10 at 3.5 rheostat setting.
Temperature. 0°-4° C. for all steps.
Centrifugation. 45,000 rpm for 1 hr, 50 Ti rotor, Beckman L8-80 ultracentrifuge.
Incubation. 16-18 hr at 4°-6° C.
Concentations. 1×10^-10 M to 1×10^-5 M (7 concentrations).
Method. Charcoal adsorption method used to remove unbound radioactivity. Five-tenths ml of dextran-coated charcoal (0.5% Norit A and 0.05% dextran T-70) added to all tubes except total radioactivity tubes (0.5 ml buffer [B] added), tubes vortexed 3-5 sec, allowed to sit for 10 minutes and centrifuged 10 minutes at 2000 rpm in Beckman TJ-6 centrifuge at 0°-4° C.
Data Interpretation. […] The relative binding affinity (RBA) of each compound was calculated by using the following equation. [formula] where

[2] = tested on: uterine endometrium of estrone-primed immature rabbits; test: Clauberg assay (progestational activity, McPhail); type: in vivo, rabbit (New Zealand White); settings: for Uterine Weight (X ± S.D.) / McPhail Index (0-4) (X ± S.D.): oral; for McPhail Index (0-4) (X ± S.D.): 0 none, 4 maximal
[3] = tested on: estrogen-primed immature rabbits; settings: cited from earlier work
[4] = tested on: endometrium of estrogen-primed ovariectomized or climacteric women; settings: oral; cited from earlier work
[5] = general knowledge; cited from earlier work
[6] = tested on: androgen target organs of castrate immature male rats; test: Anti-androgenic activity in the castrate immature rat assay; type: in vivo; settings: for anti-androgenic activity, in words: with testosterone sc 400 μg/rat/day, doses up to 400 μg/rat/day (progestagen oral; progesterone sc)
Method: The oral anti-androgenic activity of 6-methyl-6-dehydro-17α-ethynylprogesterone was evaluated in the castrate immature male rat assay [Lerner et al., Proc. Soc. […] The assay is briefly described in the footnotes to Table 11.
*This assay employs castrate immature rats. For methods refer to Lerner,
L. J., A. Bianchi and A. Borman, Proc. Soc.
**Groups of rats (7/group) were given daily injections of 0.3 ml sesame
oil (control) or compound (in 0.3 ml sesame oil) for 7 days. Some groups
also concurrently received progestational compounds by the sc or oral
route of administration in order to evaluate antiandrogenic activity. One
day after the final doses, the animals were sacrificed and the androgen
target organs indicated were weighed.
***Statistically significant (p < 0.05) lower organ weights versus the
testosterone, sc, (400 μg/rat/day) group as determined by Analysis of
Variance coupled with Duncan's Multiple Range Test.

[7] = 100 μg/rabbit daily, listed as 6α-Methyl-17α-acetoxyprogesterone
[8] = oral 25 μg/rat daily + testosterone sc 400
[9] = oral 100 μg/rat daily + testosterone sc 400
[10] = oral 400 μg/rat daily + testosterone sc 400

Compound | RBA ([1]; Assay 6) | Uterine Weight (X ± S.D.) ([2]; 5 μg/rabbit daily) | McPhail Index (0-4) (X ± S.D.) ([2]; 5 μg/rabbit daily) | Uterine Weight (X ± S.D.) ([2]; 10 μg/rabbit daily) | McPhail Index (0-4) (X ± S.D.) ([2]; 10 μg/rabbit daily) | Uterine Weight (X ± S.D.) ([2]; 25 μg/rabbit daily) | McPhail Index (0-4) (X ± S.D.) ([2]; 25 μg/rabbit daily) | Uterine Weight (X ± S.D.) ([2]; 50 μg/rabbit daily) | McPhail Index (0-4) (X ± S.D.) ([2]; 50 μg/rabbit daily) | Uterine Weight (X ± S.D.) ([2]; 100 μg/rabbit daily) | McPhail Index (0-4) (X ± S.D.) ([2]; 100 μg/rabbit daily) | Uterine Weight (X ± S.D.) ([2]; 200 μg/rabbit daily) | McPhail Index (0-4) (X ± S.D.) ([2]; 200 μg/rabbit daily) | Uterine Weight (X ± S.D.) ([2]; 400 μg/rabbit daily) | McPhail Index (0-4) (X ± S.D.) ([2]; 400 μg/rabbit daily) | Threshold or effective dose, Clauberg Assay ([3]; oral) | Threshold or effective dose, Clauberg Assay ([3]; s.c. (i.m.)) | Threshold or effective dose, Kaufman Assay [4] | oral progestational activity, in words [5] | Levator Ani weight (X ± S.D.) [6, 8] | further results
CC(=O)O[C@]1(C(C)=O)CC[C@H]2[C@@H]3C[C@H](C)C4=CC(=O)CC[C@]4(C)[C@H]3CC[C@@]21C [Medroxyprogesterone Acetate, 6α-Methyl-17α-acetoxyprogesterone, reference compound] | 143% | 1.08 ± 0.01 g | 0.29 ± 0.06 | 1.35 ± 0.34 g | 0.71 ± 0.06 | 1.12 ± 0.19 g | 0.25 ± 0.10 | 2.82 ± 0.92 g | 3.00 ± 0.83 | 2.65 ± 0.35 g | 3.90 ± 0.13 | 3.30 ± 0.41 g | 4.00 ± 0.00 | 3.73 ± 0.61 g | 4.00 ± 0.00 | 0.01-0.03 mg/animal | 0.01-0.03 mg/animal | 40-70 mg/cycle | potent orally active progestational compounds | – | RBA ([1]; Assay 4): 57%; RBA ([1]; Assay 5): 133%; McPhail Index (0-4) (X ± S.D.) [2, 7]: 2.66 ± 1.10; Uterine Weight (X ± S.D.) [2, 7]: 2.11 ± 1.28 g
C#C[C@]1(C(C)=O)CC[C@H]2[C@@H]3C=C(C)C4=CC(=O)CC[C@]4(C)[C@H]3CC[C@@]21C [17α-Ethynyl-6-methylpregna-4,6-diene-3,20-dione] | 104% | 0.99 ± 0.34 g | 0.00 ± 0.0 | 1.11 ± 0.23 g | 0.17 ± 0.12 | 2.93 ± 1.33 g | 3.33 ± 0.62 | 3.59 ± 0.43 g | 4.00 ± 0.00 | – | – | – | – | – | – | – | – | – | – | 63 ± 13 mg | potency relative to levonorgestrel, in words ([2]; both given orally): equipotent with levonorgestrel; progestational potency relative to subcutaneous progesterone, in words ([2]; compound given orally, progesterone sc): more than eight times as potent as progesterone administered subcutaneously; Seminal Vesicles weight (X ± S.D.) [6, 8]: 141 ± 43 mg; Ventral Prostate weight (X ± S.D.) [6, 8]: 61 ± 13 mg; Levator Ani weight (X ± S.D.) [6, 9]: 68 ± 13 mg; Seminal Vesicles weight (X ± S.D.) [6, 9]: 141 ± 9 mg; Ventral Prostate weight (X ± S.D.) [6, 9]: 63 ± 25 mg; Levator Ani weight (X ± S.D.) [6, 10]: 66 ± 9 mg; Seminal Vesicles weight (X ± S.D.) [6, 10]: 129 ± 37 mg; Ventral Prostate weight (X ± S.D.) [6, 10]: 43 ± 12 mg; anti-androgenic activity, in words ([6]; listed as 6-methyl-6-dehydro-17α-ethynylprogesterone): significant depression of ventral prostate weight; also recorded: Seminal vesicle weight also was depressed at the same dose level, but the decrease was not statistically significant
C#C[C@]1(O)CC[C@H]2[C@@H]3CCC4=CC(=O)CC[C@@H]4[C@H]3CC[C@@]21CC [Levonorgestrel, reference compound] | – | 1.30 ± 0.49 g | 0.08 ± 0.12 | 0.86 ± 0.04 g | 0.04 ± 0.06 | 2.59 ± 0.81 g | 3.71 ± 0.16 | 1.95 ± 0.41 g | 2.92 ± 0.42 | 3.57 ± 1.08 g | 3.90 ± 0.12 | 2.80 ± 0.14 g | 4.00 ± 0.00 | 2.67 ± 0.80 g | 3.70 ± 0.47 | 0.03 mg/animal | 0.01-0.03 mg/animal | 6 mg/cycle | – | – | RBA ([1]; Assay 1, 5α-dihydro-17α-ethynyl: lot 1): 111%
CC(=O)O[C@]1(C(C)=O)CC[C@H]2[C@@H]3C=C(C)C4=CC(=O)CC[C@]4(C)[C@H]3CC[C@@]21C [Megestrol Acetate, 6-Methyl-6-dehydro-17α-acetoxyprogesterone] | – | – | – | – | – | – | – | – | – | – | – | – | – | – | – | 0.03 mg/animal | 0.01-0.03 mg/animal | 35-50 mg/cycle | potent orally active progestational compounds | 50 ± 8 mg | Seminal Vesicles weight (X ± S.D.) [6, 8]: 125 ± 23 mg; Ventral Prostate weight (X ± S.D.) [6, 8]: 42 ± 20 mg; Levator Ani weight (X ± S.D.) [6, 9]: 55 ± 12 mg; Seminal Vesicles weight (X ± S.D.) [6, 9]: 128 ± 36 mg; Ventral Prostate weight (X ± S.D.) [6, 9]: 54 ± 13 mg; Levator Ani weight (X ± S.D.) [6, 10]: 65 ± 12 mg; Seminal Vesicles weight (X ± S.D.) [6, 10]: 120 ± 21 mg; Ventral Prostate weight (X ± S.D.) [6, 10]: 48 ± 15 mg; anti-androgenic activity, in words [6]: significant anti-androgenic activity
